According to publication PMC3705412, “PTP1B Inhibitory and Anti-Inflammatory Effects of Secondary Metabolites Isolated from the Marine-Derived Fungus Penicillium sp. JF-55” (Marine Drugs, 2013):

Key:
[1] = system: COX-2-derived PGE2 production in murine peritoneal macrophages; assay: PGE2 production in LPS-stimulated macrophages, ELISA; format: cell-based, murine (C57BL/6 mice); settings: Mus musculus, Peritoneal macrophage; pre-treated 12 h, LPS 1 μg/mL 18 h
Method: (§1) C57BL/6 mice were purchased from Orient Bio Co. (Sungnam, Kyung-Kido, Korea). TG-elicited peritoneal macrophages were harvested four days after intraperitoneal (i.p.) injection of 3 mL of TG [37]. Peritoneal lavage was performed using 8 mL of Hanks’ Balanced Salt Solution containing 10 U/mL heparin. The cells were distributed in Roswell Park Memorial Institute medium (RPMI) supplemented with 10% heat-inactivated FBS, in 6-well tissue culture plates (5 × 10^6 cells/mL). The level of PGE2, TNF-α or IL-1β present in each sample was determined using a commercially available kit from R & D Systems. The assay was performed according to the manufacturer’s instructions. Briefly, murine peritoneal macrophages were cultured in 24-well plates, pre-incubated for 12 h with different concentrations of compounds 1–3, and then stimulated for 18 h with LPS. The cell culture supernatants were then immediately collected after treatment and centrifuged at 13,000× g for 2 min to remove particulate matter. The medium was added to a 96-well plate pre-coated with affinity-purified PGE2-specific polyclonal antibodies or the medium was added to a 96-well plate pre-coated with affinity-purified polyclonal antibodies that were specific to mouse TNF-α or IL-1β. An enzyme-linked polyclonal antibody specific for PGE2, mouse TNF-α or IL-1β was added to the wells for 20 h, followed by a final wash to remove any unbound antibody-enzyme reagent. A substrate solution was added, and the intensity of the color produced, which was measured at 450 nm (the correction wavelength was set at 540 nm or 570 nm), was proportional to the amount of PGE2, TNF-α or IL-1β present.

CD4 = system: CD4; parameters: method as in doi:10.1351/pac199466102383; settings: previously reported ref 43; cited from earlier work
[2] = system: IL-1β production in murine peritoneal macrophages; assay: IL-1β production in LPS-stimulated macrophages, ELISA; format: cell-based, murine (C57BL/6 mice); settings: Mus musculus, Peritoneal macrophage; pre-treated 12 h, LPS 1 μg/mL 18 h
Method: as §1

[3] = system: TNF-α production in murine peritoneal macrophages; assay: TNF-α production in LPS-stimulated macrophages, ELISA; format: cell-based, murine (C57BL/6 mice); settings: Mus musculus, Peritoneal macrophage; pre-treated 12 h, LPS 1 μg/mL 18 h
Method: as §1

[4] = system: iNOS-derived NO production in murine peritoneal macrophages; assay: Nitrite (NO) production in LPS-stimulated macrophages, Griess reaction; format: cell-based, murine (C57BL/6 mice); settings: Mus musculus, Peritoneal macrophage; pre-treated 12 h, LPS 1 μg/mL 18 h
Method: The expression of pro-inflammatory enzymes, including COX-2 and iNOS, plays an important role in immune-activated macrophages via the production of COX-2-derived PGE2 and iNOS-derived NO [20, 21]. To investigate the effects of compounds on iNOS-derived NO and COX-2-derived PGE2 production, and iNOS and COX-2 expression in LPS-stimulated macrophages, murine peritoneal macrophages were stimulated with LPS (1 μg/mL) for 18 h in the presence or absence of non-cytotoxic concentrations of compounds 1–3 (Figure S1). […] The finding that penstyrylpyrone (1) suppressed LPS-induced pro-inflammatory mediators, such as NO, PGE2, iNOS, and COX-2, led further investigation of the effects of penstyrylpyrone (1) on LPS-induced TNF-α and IL-1β production, which are other pro-inflammatory mediators.
C57BL/6 mice were purchased from Orient Bio Co. (Sungnam, Kyung-Kido, Korea). TG-elicited peritoneal macrophages were harvested four days after intraperitoneal (i.p.) injection of 3 mL of TG [37]. Peritoneal lavage was performed using 8 mL of Hanks’ Balanced Salt Solution containing 10 U/mL heparin. The cells were distributed in Roswell Park Memorial Institute medium (RPMI) supplemented with 10% heat-inactivated FBS, in 6-well tissue culture plates (5 × 10^6 cells/mL).
The production of nitrite, a stable end product of NO oxidation, was used as a measure of iNOS activity. The nitrite present in the conditioned medium was determined using a method based on the Griess reaction.

[5] = biological target: T1, PTP1B (human, recombinant) (Homo sapiens, UniProt P18031); assay: PTP1B assay (pNPP hydrolysis); format: biochemical; settings: for IC50: 2 mM pNPP, pH 6.0, 30 °C, 30 min, read-out: PTP1B inhibitory activity IC50
T1 construct: purchased BIOMOL Research Laboratories, Inc
T1 sequence (P18031 1-435): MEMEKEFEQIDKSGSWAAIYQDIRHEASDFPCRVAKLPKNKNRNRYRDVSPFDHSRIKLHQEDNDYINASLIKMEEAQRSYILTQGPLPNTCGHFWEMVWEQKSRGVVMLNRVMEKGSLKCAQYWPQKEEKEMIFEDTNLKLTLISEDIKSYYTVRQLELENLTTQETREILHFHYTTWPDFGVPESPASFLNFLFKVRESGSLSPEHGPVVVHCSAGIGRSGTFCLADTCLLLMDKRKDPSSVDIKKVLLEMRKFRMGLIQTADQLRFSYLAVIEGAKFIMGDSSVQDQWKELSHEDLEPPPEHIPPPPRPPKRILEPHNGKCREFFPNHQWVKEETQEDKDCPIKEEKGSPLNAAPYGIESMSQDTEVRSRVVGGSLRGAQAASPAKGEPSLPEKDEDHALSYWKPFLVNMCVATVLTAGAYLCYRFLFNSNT
Method: PTP1B (human, recombinant) was purchased from BIOMOL Research Laboratories, Inc. Enzyme activity was measured in a reaction mixture containing 2 mM p-nitrophenyl phosphate (pNPP) in 50 mM citrate, pH 6.0 (composition: 0.1 M NaCl, 1 mM EDTA, and 1 mM dithiothreitol (DTT)). The reaction mixture was placed in an incubator maintained at 30 °C for 30 min, and the reaction was terminated by the addition of 1 N NaOH. The amount of p-nitrophenol produced was estimated by measuring the increase in absorbance at 405 nm. The nonenzymatic hydrolysis of 2 mM pNPP was corrected by measuring the increase in absorbance at 405 nm in the absence of PTP1B enzyme. For the kinetic analysis, the reaction mixture consisted of different concentrations of pNPP as a PTP1B substrate in the absence or presence of compound 1, and assays were performed as described above. The Michaelis-Menten constant (Km) and maximum velocity (Vmax) of PTP1B were determined by the Lineweaver-Burk plot using a GraphPad Prism® 4 program (GraphPad Software Inc., San Diego, CA, USA).

Row | IC50 [1] | IC50 [2] | IC50 [3] | IC50 [4] | IC50 [5] | Mode of PTP1B inhibition (Lineweaver-Burk, non-linear regression) ([5]; different concentrations of pNPP) | SMILES | CD4-binding activity (CD4)
1 | > 40 µM | > 40 µM | > 40 µM | > 40 µM | 1.9 µM | competitive | CC1=Cc2oc3cc(O)c(O)c(C(=O)O)c3c(=O)c2CO1 [Anhydrofulvic acid (2), anhydrofulvic acid] | weak
2 | > 40 µM | > 40 µM | > 40 µM | > 40 µM | > 25.8 µM | – | Cc1cc(=O)c2c(o1)-c1c(cc(O)c(O)c1C(=O)O)OC2 [Citromycetin (3), citromycetin] | weak
